Laboratory results taken from the supplement of paper PMC5908809.

How the values were obtained:
[1] = tested on: normal NK cells expanded with K562-aAPC; test: percent inhibition of viability; higher = more inhibition; details: 72 h, IL-2 2.5 ng/mL
Description: (§1)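 Drug sensitivity and resistance testing on K562-aAPC-expanded normal NK cells: 5 concentrations (10-fold steps over a 10,000-fold range), 72 h at 37 °C, viability by CellTiter-Glo normalised to DMSO and benzethonium chloride controls; DSS from the fitted curve.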

DERL-7 (IL-2 2.5 ng/mL) [2] = test: as above; details: 72 h
IMC-1 (IL-2 20 ng/mL) [3] = test: as above; details: 72 h
KAI3 (IL-2 2.5 ng/mL) [4] = test: as above; details: 72 h
KHYG-1 (IL-2 2.5 ng/mL) [5] = test: as above; details: 72 h
NK-92 (IL-2 2.5 ng/mL) [6] = test: as above; details: 72 h
NK-YS (IL-2 2.5 ng/mL) [7] = test: as above; details: 72 h
NKL (IL-2 2.5 ng/mL) [8] = test: as above; details: 72 h
SNK-6 (IL-2 2.5 ng/mL) [9] = test: as above; details: 72 h
YT (IL-2 2.5 ng/mL) [10] = test: as above; details: 72 h
[11] = tested on: normal primary NK cells, pool 1 (3 donors) (IL-2 2.5 ng/mL); test: as above; details: 72 h
[12] = tested on: normal primary NK cells, pool 1 (3 donors), resting (IL-2 0 ng/mL); test: as above; details: 72 h
[13] = tested on: normal primary NK cells, pool 2 (3 donors) (IL-2 2.5 ng/mL); test: as above; details: 72 h
[14] = tested on: normal primary NK cells, pool 3 (3 donors) (IL-2 2.5 ng/mL); test: as above; details: 72 h
[15] = tested on: normal NK cells expanded with K562-aAPC; test: drug sensitivity score (DSS) (DSS units); higher = more sensitive; extreme values may be limits of the assay; details: 72 h; IL-2 2.5 ng/mL
Description: as §1

DERL-7 (IL-2 2.5 ng/mL) [16] = test: as above; details: 72 h
IMC-1 (IL-2 20 ng/mL) [17] = test: as above; details: 72 h
KAI3 (IL-2 2.5 ng/mL) [18] = test: as above; details: 72 h
KHYG-1 (IL-2 2.5 ng/mL) [19] = test: as above; details: 72 h
NK-92 (IL-2 2.5 ng/mL) [20] = test: as above; details: 72 h
NK-YS (IL-2 2.5 ng/mL) [21] = test: as above; details: 72 h
NKL (IL-2 2.5 ng/mL) [22] = test: as above; details: 72 h
SNK-6 (IL-2 2.5 ng/mL) [23] = test: as above; details: 72 h
YT (IL-2 2.5 ng/mL) [24] = test: as above; details: 72 h
[25] = tested on: normal primary NK cells, pool 1 (3 donors) (IL-2 2.5 ng/mL); test: as above; details: 72 h
[26] = tested on: normal primary NK cells, pool 1 (3 donors), resting (IL-2 0 ng/mL); test: as above; details: 72 h
[27] = tested on: normal primary NK cells, pool 2 (3 donors) (IL-2 2.5 ng/mL); test: as above; details: 72 h
[28] = tested on: normal primary NK cells, pool 3 (3 donors) (IL-2 2.5 ng/mL); test: as above; details: 72 h

CC(C)(O)CC(=O)NCCn1ccc2ncnc(Nc3ccc(Oc4cccc(C(F)(F)F)c4)c(Cl)c3)c21 [TAK-285] (max concentration tested 2500 nM)
percent inhibition of viability [%]
Details | 0.25 nM | 2.5 nM | 25 nM | 250 nM | 2500 nM
DERL-7 (IL-2 2.5 ng/mL) [2] | 0.57 | -0.5 | -0.21 | -6.99 | 3.24
IMC-1 (IL-2 20 ng/mL) [3] | -2.98 | -2.02 | -5.78 | -4.36 | -2.28
KAI3 (IL-2 2.5 ng/mL) [4] | 3.24 | 6.26 | -7.58 | 2.41 | -4.47
KHYG-1 (IL-2 2.5 ng/mL) [5] | -0.17 | -1.01 | -1.95 | 2.13 | -6.23
NK-92 (IL-2 2.5 ng/mL) [6] | 3.91 | -1.52 | -0.33 | 10.9 | 11.6
NK-YS (IL-2 2.5 ng/mL) [7] | -1.3 | -5.16 | -2.82 | 0.41 | -0.02
NKL (IL-2 2.5 ng/mL) [8] | -13.2 | -11.7 | -12.7 | -16.1 | -29.3
SNK-6 (IL-2 2.5 ng/mL) [9] | 5.49 | 3.7 | -2.84 | -9.96 | -12.5
YT (IL-2 2.5 ng/mL) [10] | 0.86 | -3.2 | 0.37 | 1.42 | -3.68
[1] | -3.9 | -5.59 | -4.49 | -4.65 | -10.5
[11] | -5.45 | -7.93 | -3.5 | -0.56 | 2.32
[12] | -19.2 | -12 | 10 | 5.74 | 6.13
[13] | -6.38 | -6.44 | -5.09 | -7.05 | -6.29
[14] | -5.51 | -2.63 | -4.05 | -8.03 | -14.8

Details | drug sensitivity score
DERL-7 (IL-2 2.5 ng/mL) [16] | 0
IMC-1 (IL-2 20 ng/mL) [17] | 0.89
KAI3 (IL-2 2.5 ng/mL) [18] | 0
KHYG-1 (IL-2 2.5 ng/mL) [19] | 0
NK-92 (IL-2 2.5 ng/mL) [20] | 0.37
NK-YS (IL-2 2.5 ng/mL) [21] | 0
NKL (IL-2 2.5 ng/mL) [22] | 0.89
SNK-6 (IL-2 2.5 ng/mL) [23] | 0
YT (IL-2 2.5 ng/mL) [24] | 0
[15] | 0.89
[25] | 0
[26] | 0.01
[27] | 0.89
[28] | 0.89

C=CCNC1=C2C[C@@H](C)C[C@H](OC)[C@H](O)[C@@H](C)/C=C(\C)[C@H](OC(N)=O)[C@@H](OC)/C=C\C=C(/C)C(=O)NC(=CC1=O)C2=O [Tanespimycin] (max concentration tested 10000 nM)
percent inhibition of viability [%]
Details | 1 nM | 10 nM | 100 nM | 1000 nM | 10000 nM
DERL-7 (IL-2 2.5 ng/mL) [2] | 0.9 | -1.85 | 35.9 | 101 | 101
IMC-1 (IL-2 20 ng/mL) [3] | -1.67 | 0.76 | 3.61 | 99.8 | 101
KAI3 (IL-2 2.5 ng/mL) [4] | 0.55 | 5.14 | 60.9 | 104 | 105
KHYG-1 (IL-2 2.5 ng/mL) [5] | -4.47 | 0.32 | 7.33 | 103 | 106
NK-92 (IL-2 2.5 ng/mL) [6] | -11.8 | -0.27 | 37.7 | 99.1 | 100
NK-YS (IL-2 2.5 ng/mL) [7] | -3.46 | -0.46 | 63.4 | 103 | 105
NKL (IL-2 2.5 ng/mL) [8] | -8.98 | -11.1 | 73.2 | 91.9 | 91.2
SNK-6 (IL-2 2.5 ng/mL) [9] | 3.74 | -19.1 | 41.6 | 87.7 | 89.8
YT (IL-2 2.5 ng/mL) [10] | -5.76 | -8.38 | 13.2 | 94.7 | 101
[1] | -6.12 | -2.4 | 32.3 | 99.3 | 100
[11] | 1.58 | 12.9 | 49.5 | 87.4 | 92.3
[12] | -6.62 | 18.1 | 28.8 | 51.2 | 69.4
[13] | -2.56 | 2.25 | 36.4 | 80 | 85.7
[14] | -2.89 | -1.44 | 15.4 | 76.7 | 89.1

Details | drug sensitivity score
DERL-7 (IL-2 2.5 ng/mL) [16] | 23
IMC-1 (IL-2 20 ng/mL) [17] | 18.4
KAI3 (IL-2 2.5 ng/mL) [18] | 25.3
KHYG-1 (IL-2 2.5 ng/mL) [19] | 19.3
NK-92 (IL-2 2.5 ng/mL) [20] | 23.1
NK-YS (IL-2 2.5 ng/mL) [21] | 25.4
NKL (IL-2 2.5 ng/mL) [22] | 25
SNK-6 (IL-2 2.5 ng/mL) [23] | 21.6
YT (IL-2 2.5 ng/mL) [24] | 19.1
[15] | 22.6
[25] | 22.4
[26] | 14
[27] | 19.2
[28] | 16
